{"source": "paper PMC4062389", "about": "“LASSBio-1135: A Dual TRPV1 Antagonist and Anti-TNF-Alpha Compound Orally Effective in Models of Inflammatory and Neuropathic Pain” (PLoS ONE, 2014)", "target": "TRPV1 (Rattus norvegicus, UniProt O35433)", "sequence (O35433 whole entry)": "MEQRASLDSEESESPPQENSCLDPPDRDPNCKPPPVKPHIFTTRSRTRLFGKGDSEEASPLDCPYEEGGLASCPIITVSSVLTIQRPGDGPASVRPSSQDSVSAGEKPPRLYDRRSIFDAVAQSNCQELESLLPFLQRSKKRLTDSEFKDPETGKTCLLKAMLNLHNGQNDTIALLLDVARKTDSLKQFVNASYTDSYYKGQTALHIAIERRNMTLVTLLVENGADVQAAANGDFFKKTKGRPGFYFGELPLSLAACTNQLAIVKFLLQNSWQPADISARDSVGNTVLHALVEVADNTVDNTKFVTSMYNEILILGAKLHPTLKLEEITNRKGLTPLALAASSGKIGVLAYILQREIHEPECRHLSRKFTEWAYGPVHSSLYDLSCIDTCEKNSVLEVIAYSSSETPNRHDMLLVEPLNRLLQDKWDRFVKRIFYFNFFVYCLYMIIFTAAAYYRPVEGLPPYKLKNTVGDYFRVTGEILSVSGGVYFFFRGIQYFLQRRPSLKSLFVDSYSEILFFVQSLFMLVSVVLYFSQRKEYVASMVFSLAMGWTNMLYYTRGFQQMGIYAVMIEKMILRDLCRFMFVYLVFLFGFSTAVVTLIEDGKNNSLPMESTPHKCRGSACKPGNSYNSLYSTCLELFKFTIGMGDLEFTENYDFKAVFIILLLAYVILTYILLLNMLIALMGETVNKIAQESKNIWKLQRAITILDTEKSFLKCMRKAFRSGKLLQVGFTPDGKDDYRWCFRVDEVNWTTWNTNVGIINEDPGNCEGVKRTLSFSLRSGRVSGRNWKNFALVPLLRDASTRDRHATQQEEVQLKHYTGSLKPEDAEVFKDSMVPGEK", "test": "two-electrode voltage clamp in Xenopus oocytes injected with rat TRPV1 cRNA; inhibition of […] capsaicin current", "format": "cell-based"}
{"substance": "LASSBio-1135", "values": [{"measurement": "IC50", "value": 580, "unit": "nM"}]}
